We go through 20 molecules from patent US20230129359A1, “MUSCARINIC RECEPTOR 4 ANTAGONISTS AND METHODS OF USE” (Neurocrine Biosciences, Inc., priority 2020, published 2023).

The assay addresses T1, human M4 receptor (Homo sapiens, UniProt P08173).
T1 construct: expressed in transfected cells; host or cells: CHO cells
T1 sequence (P08173 1-479): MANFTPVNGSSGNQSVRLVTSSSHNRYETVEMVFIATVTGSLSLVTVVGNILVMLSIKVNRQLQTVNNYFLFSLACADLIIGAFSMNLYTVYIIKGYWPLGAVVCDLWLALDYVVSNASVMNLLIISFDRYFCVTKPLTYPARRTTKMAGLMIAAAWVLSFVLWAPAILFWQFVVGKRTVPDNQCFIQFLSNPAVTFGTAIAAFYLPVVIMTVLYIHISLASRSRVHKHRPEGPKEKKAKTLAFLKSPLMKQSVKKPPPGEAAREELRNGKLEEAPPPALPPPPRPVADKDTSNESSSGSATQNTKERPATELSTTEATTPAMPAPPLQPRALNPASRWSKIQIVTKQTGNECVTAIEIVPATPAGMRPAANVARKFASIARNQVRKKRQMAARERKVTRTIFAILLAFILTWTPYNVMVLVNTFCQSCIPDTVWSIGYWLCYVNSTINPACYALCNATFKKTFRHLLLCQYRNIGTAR
The assay is described as follows: Radioligand ([3H]N-methylscopolamine) binding assay, membranes from CHO cells expressing human M4 receptor. As to conditions: Ki against human M4 receptor; membranes from CHO cells; tritiated N-methylscopolamine 1.5 nM; read-out: K. The gist of the method: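 Competition binding used CHO-cell membranes expressing human M4 with 1.5 nM [3H]N-methylscopolamine and twelve compound concentrations ([…]). Incubation was 90 minutes at 37 °C in 50 mM HEPES, 100 mM NaCl, 5 mM MgCl2, 1 mM EDTA, pH 7.4. Bound ligand was collected by filtration onto PEI-treated glass fibre for Ki.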
Turning to `C[C@@H]1CN(c2ncc(OC(F)F)cn2)C[C@H](C)N1C(=O)OC1CC2(C1)CN(Cc1ccc(F)cc1)C2` [Compound 465, 2-[(4-fluorophenyl)methyl]-2-azaspiro[3.3]heptan-6-yl (2R,6S)-4-[5-(difluoromethoxy)pyrimidin-2-yl]-2,6-dimethylpiperazine-1-carboxylate], the Ki was less than 10 nM.

As for `C[C@@H]1CN(c2ncc(C(F)(F)F)c(N)n2)C[C@H](C)N1C(=O)OC1CC2(C1)CN(Cc1ccc(F)cc1)C2` [Compound 466, 2-[(4-fluorophenyl)methyl]-2-azaspiro[3.3]heptan-6-yl (2R,6S)-4-[4-amino-5 (trifluoromethyl)pyrimidin-2-yl]-2,6-dimethylpiperazine-1-carboxylate], the Ki was less than 10 nM.

On to `C[C@@H]1CN(c2ncc(C(F)F)cn2)C[C@H](C)N1C(=O)OC1CC2(C1)CN(Cc1ccc(F)cc1)C2` [Compound 467, 2-[(4-fluorophenyl)methyl]-2-azaspiro[3.3]heptan-6-yl (2R,6S)-4-[5-(difluoromethyl)pyrimidin-2-yl]-2,6-dimethylpiperazine-1-carboxylate], for which the Ki was 10 to 100 nM.

On to `C[C@@H]1CN(c2ncc(F)cn2)C[C@H](C)N1C(=O)OC1CC2(C1)CN(Cc1ccc(F)cc1)C2` [Compound 468, 2-[(4-fluorophenyl)methyl]-2-azaspiro[3.3]heptan-6-yl (2R,6S)-4-(5-fluoropyrimidin-2-yl)-2,6-dimethylpiperazine-1-carboxylate], for which the Ki is 10 to 100 nM.

For `CNC(=O)c1cnc(N2C[C@@H](C)N(C(=O)OC3CC4(C3)CN(Cc3ccccc3)C4)[C@@H](C)C2)nc1` [Compound 471, 2-benzyl-2-azaspiro[3.3]heptan-6-yl (2R,6S)-2,6-dimethyl-4-[5-(methylcarbamoyl)pyrimidin-2-yl]piperazine-1-carboxylate], the Ki lay in the range of 100 to 1000 nM.

On to `C[C@@H]1CN(c2ncc(C#N)cn2)C[C@H](C)N1C(=O)OC1CC2(C1)CN(Cc1ccc(F)cc1)C2` [Compound 472, 2-[(4-fluorophenyl)methyl]-2-azaspiro[3.3]heptan-6-yl (2R,6S)-4-(5-cyanopyrimidin-2-yl)-2,6-dimethylpiperazine-1-carboxylate], for which the Ki was in the range of 10 to 100 nM.

As to `C[C@@H]1CN(c2ncc(C#N)cn2)[C@@H](C)CN1C(=O)OC1CC2(C1)CN(Cc1ccc(F)cc1)C2` [Compound 473, 2-[(4-fluorophenyl)methyl]-2-azaspiro[3.3]heptan-6-yl (2R,5S)-4-(5-cyanopyrimidin-2-yl)-2,5-dimethylpiperazine-1-carboxylate], the Ki lay within 10 to 100 nM.

Regarding `C[C@@H]1CN(c2ncc(C#N)cn2)C[C@H](C)N1C(=O)OC1CC2(C1)CN(Cc1ccc(Cl)cc1)C2` [Compound 475, 2-[(4-chlorophenyl)methyl]-2-azaspiro[3.3]heptan-6-yl (2R,6S)-4-(5-cyanopyrimidin-2-yl)-2,6-dimethylpiperazine-1-carboxylate], the Ki fell in the range of 10 to 100 nM.

For `C[C@@H]1CN(c2ncc(C(F)(F)F)cn2)CCN1C(=O)OC1CC2(C1)CN(Cc1ccc(Cl)cc1)C2` [Compound 478, 2-[(4-chlorophenyl)methyl]-2-azaspiro[3.3]heptan-6-yl (2R)-2-methyl-4-[5-(trifluoromethyl)pyrimidin-2-yl]piperazine-1-carboxylate], the Ki lay within 100 to 1000 nM.

In the case of `C[C@@H]1CN(c2cnc(C(F)(F)F)cn2)C[C@H](C)N1C(=O)OC1CC2(C1)CN(Cc1ccc(Cl)cc1)C2` [Compound 479, 2-[(4-chlorophenyl)methyl]-2-azaspiro[3.3]heptan-6-yl (2R,6S)-2,6-dimethyl-4-[5-(trifluoromethyl)pyrazin-2-yl]piperazine-1-carboxylate], the Ki is 10 to 100 nM.

Turning to `C[C@@H]1CN(c2cnc(C(F)(F)F)cn2)[C@@H](C)CN1C(=O)OC1CC2(C1)CN(Cc1ccc(Cl)cc1)C2` [Compound 480, 2-[(4-chlorophenyl)methyl]-2-azaspiro[3.3]heptan-6-yl (2R,5S)-2,5-dimethyl-4-[5-(trifluoromethyl)pyrazin-2-yl]piperazine-1-carboxylate], the Ki lay within 10 to 100 nM.

In the case of `C[C@@H]1CN(c2ncc(C(F)(F)F)cn2)[C@@H](C)CN1C(=O)OC1CC2(C1)CN(Cc1ccc(Cl)cc1)C2` [Compound 482, 2-[(4-chlorophenyl)methyl]-2-azaspiro[3.3]heptan-6-yl (2R,5S)-2,5-dimethyl-4-[5-(trifluoromethyl)pyrimidin-2-yl]piperazine-1-carboxylate], the Ki was less than 10 nM.

On to `C[C@@H]1CN(c2ncc(C#N)cn2)CCN1C(=O)OC1CC2(C1)CN(Cc1ccc(Cl)cc1)C2` [Compound 483, 2-[(4-chlorophenyl)methyl]-2-azaspiro[3.3]heptan-6-yl (2R)-4-(5-cyanopyrimidin-2-yl)-2-methylpiperazine-1-carboxylate], for which the Ki fell in the range of 100 to 1000 nM.

Turning to `C[C@@H]1CN(c2ncc3cc(F)ccc3n2)[C@@H](C)CN1C(=O)OC1CC2(C1)CN(Cc1ccccc1)C2` [Compound 484, 2-benzyl-2-azaspiro[3.3]heptan-6-yl (2R,5S)-4-(6-fluoroquinazolin-2-yl)-2,5-dimethylpiperazine-1-carboxylate], the Ki was less than 10 nM.

`C[C@@H]1CN(c2ncc(C(=O)N(C)C)cn2)C[C@H](C)N1C(=O)OC1CC2(C1)CN(Cc1ccccc1)C2` [Compound 489, 2-benzyl-2-azaspiro[3.3]heptan-6-yl (2R,6S)-4-[5-(dimethylcarbamoyl)pyimidin-2-yl]-2,6-dimethylpiperazine-1-carboxylate]: the Ki lay within 100 to 1000 nM.

As for `O=C(OC1CC2(C1)CN(Cc1ccccc1)C2)N1CC2COCC(C1)N2c1ncc(C(F)(F)F)cn1` [Compound 495, 2-benzyl-2-azaspiro[3.3]heptan-6-yl 9-[5-(trifluoromethyl)pyrimidin-2-yl]-3-oxa-7,9-diazabicyclo[3.3.1]hnonane-7-carboxylate], the Ki fell in the range of 10 to 100 nM.

For the molecule `O=C(OC1CC2(C1)CN(Cc1ccccc1)C2)N1CC2COCC(C1)N2c1cnc(C(F)(F)F)cn1` [Compound 496, 2-benzyl-2-azaspiro[3.3]heptan-6-yl 9-[5-(trifluoromethyl)pyrazin-2-yl]-3-oxa-7,9-diazabicyclo[3.3.1]nonane-7-carboxylate], the Ki is 100 to 1000 nM.

As to `CCc1cnc(N2C[C@@H](C)N(C(=O)OC3CC4(C3)CN(Cc3ccccc3)C4)[C@@H](C)C2)nc1` [Compound 497, 2-benzyl-2-azaspiro[3.3]heptan-6-yl (2R,6S)-4-(5-ethylpyrimidin-2-yl)-2,6-dimethylpiperazine-1-carboxylate], the Ki is less than 10 nM.

Consider `C[C@@H]1CN(c2ncc(OC(F)(F)F)cn2)C[C@H](C)N1C(=O)OC1CC2(C1)CN(Cc1ccccc1)C2` [Compound 498, 2-benzyl-2-azaspiro[3.3]heptan-6-yl (2R,6S)-2,6-dimethyl-4-[5-(trifluoromethoxy)pyrimidin-2-yl]piperazine-1-carboxylate], for which the Ki was less than 10 nM.

As to `C[C@@H]1CN(c2ncc(OCC3CC3)cn2)C[C@H](C)N1C(=O)OC1CC2(C1)CN(Cc1ccccc1)C2` [Compound 499, 2-benzyl-2-azaspiro[3.3]heptan-6-yl (2R,6S)-4-[5-(cyclopropylmethoxy)pyrimidin-2-yl]-2,6-dimethylpiperazine-1-carboxylate], the Ki is less than 10 nM.
